Experimental data published in patent publication US9120812B2, “Pyrimidooxazocine derivatives as mTOR-inhibitors” (SANOFI, priority 2012, dated 2015).
pIC50: −log10 of the molar value.

What was measured:
[1] = target: mTOR (human recombinant aa mTOR 1360-2549) (Homo sapiens (Human), UniProt P42345); test: mTOR enzymatic test by TR-FRET (phosphorylation of GFP-4EBP1); assay type: biochemical
Summary of the method: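 TR-FRET detection of GFP-4EBP1 phosphorylation by a terbium-labelled anti-phospho-Thr46 antibody. Kinase reaction ran 30 min at room temperature, was quenched with EDTA (10 mM final) plus Tb-antibody (2 nM final) and left 60 min. Emission at 520 and 490 nm after 340 nm excitation, reported as the 520/490 ratio.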

PI3Kα (p110α/p85α) = PI3Kα (p110α/p85α) (Homo sapiens (Human), UniProt P42336); test: PI3Kα enzymatic test by measuring the consumption of ATP; assay type: biochemical
Summary of the method: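 p110α/p85α (1.7 μg/ml) with 50 μM PIP2 and 2 μM ATP in pH 7.5 Tris buffer with EGTA, MgCl2, Chaps, DTT; reaction 90 min. Remaining ATP measured by luciferin/luciferase luminescence; IC50 from threefold serial dilutions spanning at least 10 000-fold.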

U87MG tumour cells = test: Test of in vitro proliferation of U87MG tumour cells; assay type: cell-based; conditions: Homo sapiens, U-87 MG, 72 h, U87MG cells, 72 hours; read-out: U87 Cell Proliferation IC50
Procedure: Model 4: Test of in vitro Proliferation of U87MG Tumour Cells.
The cell growth is determined with the reagent CellTiter 96 AQueous One Solution Cell Proliferation Assay from Promega (Cat. No. G3581).

Akt-pS473 in U87MG cells = conditions: Homo sapiens, U-87 MG; for IC50: read-out: U87 Akt-pS473 % Inhibition or IC50, nM (IC50), U87MG cells; for inhibition at 3 µM: read-out: U87 Akt-pS473 % Inhibition
Procedure: Model 3: Cellular Test of Phosphorylation of the Epitope S473 of the Akt Protein on the U87MG Line Via an ELISA Test
An electrochemiluminescence signal is generated by a ruthenium-labelled anti-rabbit antibody.
After culturing for 16-20 hours (the cells are at 100% of confluence) at 37° C. under 5% CO2, 1 μl of the chemical compounds in 100% DMSO (1% DMSO final concentration on the cells) is added. The cells are incubated with the compounds for 3 hours at 37° C. under 5% CO2.
The free sites are blocked with 150 μl/well of a buffer of 50 mM Tris pH 7.5, 0.15 M NaCl, 0.02% Tween 20, 3% BSA with stirring at 450 rpm for 1 hour at room temperature, followed by a step of washing with 3×300 μl of a buffer of 50 mM Tris pH 7.5, 0.15 M NaCl, 0.02% Tween 20.
15 μl of cell lysate are mixed with 15 μl of a 50 mM buffer of Tris pH 7.5, 0.15 M NaCl, 0.02% Tween 20, 1% BSA in a precoated ELISA plate (see above), and incubated for 1 hour at room temperature with stirring, followed by a step of washing with 3×300 μl of a buffer of 50 mM Tris pH 7.5, 0.15 M NaCl, 0.02% Tween 20. The pS473 epitope of Akt is detected with a rabbit polyclonal antibody (Cell Signaling, SC9271), diluted 100-fold in 50 mM Tris pH 7.5, 0.15 M NaCl, 0.02% Tween 20, 1% BSA, 25 μl/well (incubation for 1 hour at room temperature with stirring at 450 rpm).
After washing (see above), revelation is performed with a ruthenium-labelled anti-rabbit antibody (MSD R32AB1), diluted 3000-fold in a 50 mM buffer of Tris pH 7.5, 0.15 M NaCl, 0.02% Tween 20, 1% BSA, 25 μl/well, followed by incubation for 1 hour at room temperature with stirring at 450 rpm, and the plates are covered with aluminium.
After a further washing step, the plates are emptied and 150 μl of MSD Read Buffer T diluted fourfold with water are added. The electrochemiluminescence is measured on the MSD Sector Imager 6000.

Sequence of mTOR (human recombinant aa mTOR 1360-2549) (P42345 1360-2549): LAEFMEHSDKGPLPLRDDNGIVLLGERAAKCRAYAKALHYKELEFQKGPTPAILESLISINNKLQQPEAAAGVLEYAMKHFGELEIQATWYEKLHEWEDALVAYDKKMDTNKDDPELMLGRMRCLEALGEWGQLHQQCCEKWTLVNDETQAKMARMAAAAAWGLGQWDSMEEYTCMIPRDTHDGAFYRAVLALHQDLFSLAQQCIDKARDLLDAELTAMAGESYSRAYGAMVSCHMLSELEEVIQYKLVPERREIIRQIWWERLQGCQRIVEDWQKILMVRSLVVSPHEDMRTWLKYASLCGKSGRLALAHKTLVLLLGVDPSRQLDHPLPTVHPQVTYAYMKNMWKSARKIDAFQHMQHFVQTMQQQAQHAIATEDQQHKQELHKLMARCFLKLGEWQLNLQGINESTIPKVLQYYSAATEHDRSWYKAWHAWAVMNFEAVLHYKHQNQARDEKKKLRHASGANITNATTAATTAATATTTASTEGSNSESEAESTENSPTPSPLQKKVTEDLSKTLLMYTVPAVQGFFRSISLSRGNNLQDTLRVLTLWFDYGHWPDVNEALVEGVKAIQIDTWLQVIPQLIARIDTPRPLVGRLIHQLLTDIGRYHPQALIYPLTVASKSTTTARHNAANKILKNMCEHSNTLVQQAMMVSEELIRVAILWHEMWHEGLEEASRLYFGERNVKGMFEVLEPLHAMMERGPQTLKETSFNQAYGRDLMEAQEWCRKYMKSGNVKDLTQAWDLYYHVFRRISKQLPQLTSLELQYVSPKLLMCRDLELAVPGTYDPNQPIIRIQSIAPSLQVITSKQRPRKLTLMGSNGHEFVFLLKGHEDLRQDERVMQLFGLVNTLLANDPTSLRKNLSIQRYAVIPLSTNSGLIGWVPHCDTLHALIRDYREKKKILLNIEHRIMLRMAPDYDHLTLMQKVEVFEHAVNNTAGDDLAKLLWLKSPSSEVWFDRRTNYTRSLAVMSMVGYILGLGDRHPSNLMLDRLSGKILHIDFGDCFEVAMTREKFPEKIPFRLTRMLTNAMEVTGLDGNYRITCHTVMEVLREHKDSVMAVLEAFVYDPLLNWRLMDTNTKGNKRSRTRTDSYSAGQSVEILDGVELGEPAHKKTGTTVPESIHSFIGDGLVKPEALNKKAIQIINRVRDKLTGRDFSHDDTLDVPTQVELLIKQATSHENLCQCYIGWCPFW
Sequence of PI3Kα (p110α/p85α) (P42336 whole entry): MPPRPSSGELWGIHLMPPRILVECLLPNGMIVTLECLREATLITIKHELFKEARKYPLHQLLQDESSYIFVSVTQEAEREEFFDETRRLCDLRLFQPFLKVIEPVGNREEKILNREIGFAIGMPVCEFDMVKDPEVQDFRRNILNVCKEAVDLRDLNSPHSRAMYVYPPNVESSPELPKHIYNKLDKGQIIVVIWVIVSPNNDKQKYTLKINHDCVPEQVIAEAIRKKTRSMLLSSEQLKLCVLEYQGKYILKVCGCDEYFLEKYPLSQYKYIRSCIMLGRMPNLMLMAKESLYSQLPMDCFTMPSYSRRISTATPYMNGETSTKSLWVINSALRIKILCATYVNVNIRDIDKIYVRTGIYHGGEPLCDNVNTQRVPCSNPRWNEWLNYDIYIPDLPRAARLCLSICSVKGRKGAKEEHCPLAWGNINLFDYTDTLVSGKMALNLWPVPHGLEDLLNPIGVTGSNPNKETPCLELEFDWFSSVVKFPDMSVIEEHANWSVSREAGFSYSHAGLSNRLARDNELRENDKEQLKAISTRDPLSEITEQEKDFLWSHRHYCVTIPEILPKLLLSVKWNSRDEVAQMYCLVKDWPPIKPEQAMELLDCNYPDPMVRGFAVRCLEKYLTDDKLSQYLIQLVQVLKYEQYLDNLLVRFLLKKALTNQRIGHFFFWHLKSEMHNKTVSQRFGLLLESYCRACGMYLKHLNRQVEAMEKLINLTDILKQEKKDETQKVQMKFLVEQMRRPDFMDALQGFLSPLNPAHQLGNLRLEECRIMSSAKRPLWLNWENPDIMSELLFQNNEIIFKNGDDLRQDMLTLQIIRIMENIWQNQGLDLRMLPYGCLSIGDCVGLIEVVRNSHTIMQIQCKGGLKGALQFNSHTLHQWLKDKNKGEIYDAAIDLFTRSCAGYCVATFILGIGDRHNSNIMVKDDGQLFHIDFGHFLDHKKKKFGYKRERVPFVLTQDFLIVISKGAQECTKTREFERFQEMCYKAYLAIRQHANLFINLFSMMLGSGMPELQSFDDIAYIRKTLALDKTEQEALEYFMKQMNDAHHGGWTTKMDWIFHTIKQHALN
Sequence of PI3Kα (p110α/p85α) (P27986 whole entry partner): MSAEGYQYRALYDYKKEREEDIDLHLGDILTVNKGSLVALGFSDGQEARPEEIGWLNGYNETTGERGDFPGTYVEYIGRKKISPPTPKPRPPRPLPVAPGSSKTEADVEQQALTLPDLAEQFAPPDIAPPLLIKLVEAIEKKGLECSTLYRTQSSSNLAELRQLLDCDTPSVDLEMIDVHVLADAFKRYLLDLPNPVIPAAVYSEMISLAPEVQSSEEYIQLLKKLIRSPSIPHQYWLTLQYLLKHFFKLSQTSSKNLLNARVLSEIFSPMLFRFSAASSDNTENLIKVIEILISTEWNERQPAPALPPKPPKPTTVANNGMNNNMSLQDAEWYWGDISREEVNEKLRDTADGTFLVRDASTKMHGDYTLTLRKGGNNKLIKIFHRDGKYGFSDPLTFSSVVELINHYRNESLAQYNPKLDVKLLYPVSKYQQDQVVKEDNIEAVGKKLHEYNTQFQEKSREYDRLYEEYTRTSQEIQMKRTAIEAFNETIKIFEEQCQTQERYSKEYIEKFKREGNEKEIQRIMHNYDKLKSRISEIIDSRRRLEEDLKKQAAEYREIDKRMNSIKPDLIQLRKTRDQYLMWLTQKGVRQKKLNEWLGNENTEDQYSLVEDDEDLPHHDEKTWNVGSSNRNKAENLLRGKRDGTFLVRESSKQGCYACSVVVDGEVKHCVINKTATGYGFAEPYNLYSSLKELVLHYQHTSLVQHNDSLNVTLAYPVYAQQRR

Compound	pIC50 [1]	PI3Ka IC50 (PI3Kα (p110α/p85α)) [nM]	pIC50 (U87MG tumour cells)	IC50 (Akt-pS473 in U87MG cells) [nM]	inhibition at 3 µM (Akt-pS473 in U87MG cells) [%]
CNC(=O)Nc1ccc(-c2nc(N3CC4CCC(C3)O4)nc3c2C(=O)N(CCOC)CC(C)(C)O3)cc1F [Example 210, 1-{2-Fluoro-4-[6-(2-methoxyethyl)-8,8-dimethyl-2-(8-oxa-3-azabicyclo[3.2.1]oct-3-yl)-5-oxo-5,6,7,8-tetrahydro-9-oxa-1,3,6-triazabenzocyclohepten-4-yl]phenyl}-3-methylurea]	7.39	>10000	6.20	174	–
CCN1CC(C)(C)Oc2nc(N3CCOC[C@@H]3C)nc(-c3ccc(NC(=O)Nc4cn(C)cn4)c(F)c3)c2C1=O [Example 182, 1-{4-[6-Ethyl-8,8-dimethyl-2-((S)-3-methylmorpholin-4-yl)-5-oxo-5,6,7,8-tetrahydro-9-oxa-1,3,6-triazabenzocyclohepten-4-yl]-2-fluorophenyl}-3-(1-methyl-1H-imidazol-4-yl)urea]	7.59	159	5.53	407	–
CCN1CC(C)(C)Oc2nc(N3C4CCC3COC4)nc(-c3ccc(NC(=O)NC)c(F)c3)c2C1=O [Example 207, 1-{4-[6-Ethyl-8,8-dimethyl-2-(3-oxa-8-azabicyclo[3.2.1]oct-8-yl)-5-oxo-5,6,7,8-tetrahydro-9-oxa-1,3,6-triazabenzocyclohepten-4-yl]-2-fluorophenyl}-3-methylurea]	7.74	>10000	7.13	19	–
CCN1CC(C)(C)Oc2nc(N3CC4CCC(C3)O4)nc(-c3ccc(NC(=O)Nc4cccc(OC)c4)cc3)c2C1=O [Example 127, 1-{4-[6-Ethyl-8,8-dimethyl-2-(8-oxa-3-azabicyclo[3.2.1]oct-3-yl)-5-oxo-5,6,7,8-tetrahydro-9-oxa-1,3,6-triazabenzocyclohepten-4-yl]phenyl}-3-(3-methoxyphenyl)urea]	7.80	3646	7.10	24	–
CCN1CC(C)(C)Oc2nc(N3CCOC[C@@H]3C)nc(-c3ccc(NC(=O)Nc4ccc(OC)nc4)c(C)c3)c2C1=O [Example 196, 1-{4-[6-Ethyl-8,8-dimethyl-2-((S)-3-methylmorpholin-4-yl)-5-oxo-5,6,7,8-tetrahydro-9-oxa-1,3,6-triazabenzocyclohepten-4-yl]-2-methylphenyl}-3-(6-methoxypyridin-3-yl)urea]	6.56	7470	5.30	–	60
CCN1CC(C)(C)Oc2nc(N3CCOC[C@@H]3C)nc(-c3ccc(NC(=O)Nc4nnc(C)o4)c(F)c3)c2C1=O [Example 170, 1-{4-[6-Ethyl-8,8-dimethyl-2-((S)-3-methylmorpholin-4-yl)-5-oxo-5,6,7,8-tetrahydro-9-oxa-1,3,6-triazabenzocyclohepten-4-yl]-2-fluorophenyl}-3-(5-methyl-[1,3,4]oxadiazol-2-yl)urea]	6.97	824	6.25	94	–
CCN1CC(C)(C)Oc2nc(N3CCOC[C@@H]3C)nc(-c3ccc(NC(=O)Nc4cnc(N5CCOCC5)cn4)cc3)c2C1=O [Example 232, 1-{4-[6-Ethyl-8,8-dimethyl-2-((S)-3-methylmorpholin-4-yl)-5-oxo-5,6,7,8-tetrahydro-9-oxa-1,3,6-triazabenzocyclohepten-4-yl]phenyl}-3-(5-morpholin-4-ylpyrazin-2-yl)urea]	7.49	5630	7.02	26	–
CCNC(=O)Nc1ccc(-c2nc(N3CC4CCC(C3)O4)nc3c2C(=O)N(CCOC)CC(C)(C)O3)cc1F [Example 211, 1-Ethyl-3-{2-fluoro-4-[6-(2-methoxyethyl)-8,8-dimethyl-2-(8-oxa-3-azabicyclo[3.2.1]oct-3-yl)-5-oxo-5,6,7,8-tetrahydro-9-oxa-1,3,6-triazabenzocyclohepten-4-yl]phenyl}urea]	7.06	>10000	6.05	270	–
Cc1cc(NC(=O)Nc2ccc(-c3nc(N4C5CCC4COC5)nc4c3C(=O)N(C)CC(C)(C)O4)cc2F)ccn1 [Example 59, 1-{2-Fluoro-4-[6,8,8-trimethyl-2-(3-oxa-8-azabicyclo[3.2.1]oct-8-yl)-5-oxo-5,6,7,8-tetrahydro-9-oxa-1,3,6-triazabenzocyclohepten-4-yl]phenyl}-3-(2-methylpyridin-4-yl)urea]	7.17	4200	7.38	36	–
CCN1CC(C)(C)Oc2nc(N3CC4CCC(C3)O4)nc(-c3ccc(NC(=O)Nc4cn(C)cn4)c(F)c3)c2C1=O [Example 194, 1-{4-[6-Ethyl-8,8-dimethyl-2-(8-oxa-3-azabicyclo[3.2.1]oct-3-yl)-5-oxo-5,6,7,8-tetrahydro-9-oxa-1,3,6-triazabenzocyclohepten-4-yl]-2-fluorophenyl}-3-(1-methyl-1H-imidazol-4-yl)urea]	7.57	1230	5.67	–	62
CCNC(=O)Nc1ccc(-c2nc(N3CC4CCC(C3)O4)nc3c2C(=O)N(CC)CC(C)(C)O3)cc1 [Example 99, 1-Ethyl-3-{4-[6-ethyl-8,8-dimethyl-2-(8-oxa-3-azabicyclo[3.2.1]oct-3-yl)-5-oxo-5,6,7,8-tetrahydro-9-oxa-1,3,6-triazabenzocyclohepten-4-yl]phenyl}urea]	7.51	>10000	6.62	40	–
COCCN1CC(C)(C)Oc2nc(N3CCOC[C@@H]3C)nc(-c3ccc(NC(=O)Nc4ccc(F)cc4F)cc3)c2C1=O [Example 188, 1-(2,4-Difluorophenyl)-3-{4-[6-(2-methoxyethyl)-8,8-dimethyl-2-((S)-3-methylmorpholin-4-yl)-5-oxo-5,6,7,8-tetrahydro-9-oxa-1,3,6-triazabenzocyclohepten-4-yl]phenyl}urea]	7.20	2330	6.30	45	–
CCN1CC(C)(C)Oc2nc(N3CC4CCC(C3)O4)nc(-c3ccc(NC(=O)Nc4ccc(N5CCCC5)nc4)c(F)c3)c2C1=O [Example 32, 1-{4-[6-Ethyl-8,8-dimethyl-2-(8-oxa-3-azabicyclo[3.2.1]oct-3-yl)-5-oxo-5,6,7,8-tetrahydro-9-oxa-1,3,6-triazabenzocyclohepten-4-yl]-2-fluorophenyl}-3-(6-pyrrolidin-1-ylpyridin-3-yl)urea]	7.08	>10000	6.94	21	–
CCN1CC(C)(C)Oc2nc(N3C4CCC3COC4)nc(-c3ccc(NC(=O)Nc4cc(OC)ccn4)cc3)c2C1=O [Example 79, 1-{4-[6-Ethyl-8,8-dimethyl-2-(3-oxa-8-azabicyclo[3.2.1]oct-8-yl)-5-oxo-5,6,7,8-tetrahydro-9-oxa-1,3,6-triazabenzocyclohepten-4-yl]phenyl}-3-(4-methoxypyridin-2-yl)urea]	7.28	>10000	6.42	41	–
CCN1CC(C)(C)Oc2nc(N3CC4CCC(C3)O4)nc(-c3ccc(NC(=O)Nc4cnc(N(C)C)cn4)c(F)c3)c2C1=O [Example 234, 1-(5-Dimethylaminopyrazin-2-yl)-3-{4-[6-ethyl-8,8-dimethyl-2-(8-oxa-3-azabicyclo[3.2.1]oct-3-yl)-5-oxo-5,6,7,8-tetrahydro-9-oxa-1,3,6-triazabenzocyclohepten-4-yl]-2-fluorophenyl}urea]	7.17	>10000	5.64	118	–
CCN1CC(C)(C)Oc2nc(N3CC4CCC(C3)O4)nc(-c3ccc(NC(=O)NC)c(F)c3)c2C1=O [Example 1, 1-{4-[6-Ethyl-8,8-dimethyl-2-(8-oxa-3-azabicyclo[3.2.1]oct-3-yl)-5-oxo-5,6,7,8-tetrahydro-9-oxa-1,3,6-triazabenzocyclohepten-4-yl]-2-fluorophenyl}-3-methylurea]	7.64	8841	6.71	55	–
CCN1CC(C)(C)Oc2nc(N3CC4CCC(C3)O4)nc(-c3ccc(NC(=O)Nc4cnc(OC)nc4)c(F)c3)c2C1=O [Example 136, 1-{4-[6-Ethyl-8,8-dimethyl-2-(8-oxa-3-azabicyclo[3.2.1]oct-3-yl)-5-oxo-5,6,7,8-tetrahydro-9-oxa-1,3,6-triazabenzocyclohepten-4-yl]-2-fluorophenyl}-3-(2-methoxypyrimidin-5-yl)urea]	7.47	>10000	6.62	37	–
CCN1CC(C)(C)Oc2nc(N3CC4CCC(C3)O4)nc(-c3ccc(NC(=O)Nc4ccc(N(C)C)cn4)cc3)c2C1=O [Example 64, 1-(5-Dimethylaminopyridin-2-yl)-3-{4-[6-ethyl-8,8-dimethyl-2-(8-oxa-3-azabicyclo[3.2.1]oct-3-yl)-5-oxo-5,6,7,8-tetrahydro-9-oxa-1,3,6-triazabenzocyclohepten-4-yl]phenyl}urea]	7.62	>10000	6.57	37	–
